Columns and labels:
Type in all cases: cell-based
[1] = system: Staphylococcus epidermidis 270; assay: MIC, standard broth micro-dilution assay, SE 270
Procedure: (§1) The antibacterial efficacy of the present compounds is illustrated by Table III. The minimal inhibitory concentrations (MICs) were determined using a standard broth micro-dilution assay.

[2] = system: Staphylococcus aureus 447; assay: MIC, standard broth micro-dilution assay, SA 447
Procedure: as §1

[3] = system: Staphylococcus aureus 491; assay: MIC, standard broth micro-dilution assay, SA 491
Procedure: as §1

[4] = system: Staphylococcus aureus SA1199A; assay: MIC, standard broth micro-dilution assay, SA 1199A
Procedure: as §1

[5] = system: Sensitive Enterococcus faecium and faecalis; assay: MIC, standard broth micro-dilution assay, Sensitive; details: geometric mean of 4-6 isolates
Procedure: as §1

Escherichia coli EC14 = assay: MIC, standard broth micro-dilution assay, EC 14
Procedure: as §1

[6] = system: Enterococcus faecalis 276; assay: MIC, standard broth micro-dilution assay, EF 276
Procedure: as §1

[7] = system: Enterococcus faecalis 2041; assay: MIC, standard broth micro-dilution assay, EF 2041
Procedure: as §1

[8] = system: Staphylococcus aureus X778; assay: MIC, standard broth micro-dilution assay, SA X778
Procedure: as §1

[9] = system: Haemophilus influenzae RD; assay: MIC, standard broth micro-dilution assay, HFRD
Procedure: as §1

[10] = system: Staphylococcus aureus X400; assay: MIC, standard broth micro-dilution assay, SA X400
Procedure: as §1

[11] = system: Staphylococcus aureus 446; assay: MIC, standard broth micro-dilution assay, SA 446
Procedure: as §1

Enterococcus faecium 180 = assay: MIC, standard broth micro-dilution assay, EF 180
Procedure: as §1

[12] = system: Staphylococcus haemolyticus 415; assay: MIC, standard broth micro-dilution assay, SH 415
Procedure: as §1

[13] = system: Enterococcus gallinarum 245; assay: MIC, standard broth micro-dilution assay, EG 245
Procedure: as §1

[14] = system: Enterococcus faecium 180-1; assay: MIC, standard broth micro-dilution assay, EF 180-1
Procedure: as §1

[15] = system: Staphylococcus aureus SA1199; assay: MIC, standard broth micro-dilution assay, SA 1199
Procedure: as §1

[16] = system: Staphylococcus aureus S13E
Procedure: as §1

[17] = system: Staphylococcus aureus 489; assay: MIC, standard broth micro-dilution assay, SA 489
Procedure: as §1

[18] = system: Resistant Enterococcus faecium and faecalis; assay: MIC, standard broth micro-dilution assay, Resistant; details: geometric mean of 4-6 isolates
Procedure: as §1

[19] = system: Staphylococcus haemolyticus 105; assay: MIC, standard broth micro-dilution assay, SH 105
Procedure: as §1

| Structure (SMILES) | minimal inhibitory concentration (MIC), SE 270 [1] | minimal inhibitory concentration (MIC), SA 447 [2] | minimal inhibitory concentration (MIC), SA 491 [3] | minimal inhibitory concentration (MIC), SA 1199A [4] | minimal inhibitory concentration (MIC), Sensitive [5] | minimal inhibitory concentration (MIC), EC 14 (Escherichia coli EC14) | minimal inhibitory concentration (MIC), EF 276 [6] | minimal inhibitory concentration (MIC), EF 2041 [7] | minimal inhibitory concentration (MIC), SA X778 [8] | minimal inhibitory concentration (MIC), HFRD [9] | minimal inhibitory concentration (MIC), SA X400 [10] | minimal inhibitory concentration (MIC), SA 446 [11] | minimal inhibitory concentration (MIC), EF 180 (Enterococcus faecium 180) | minimal inhibitory concentration (MIC), SH 415 [12] | minimal inhibitory concentration (MIC), EG 245 [13] | minimal inhibitory concentration (MIC), EF 180-1 [14] | minimal inhibitory concentration (MIC), SA 1199 [15] | minimal inhibitory concentration (MIC), SA S13E [16] | minimal inhibitory concentration (MIC), SA 489 [17] | minimal inhibitory concentration (MIC), Resistant [18] | also measured |
| --- | --- | --- | --- | --- | --- | --- | --- | --- | --- | --- | --- | --- | --- | --- | --- | --- | --- | --- | --- | --- | --- |
| CSCCC(NC(=O)OC(C)(C)C)C(=O)NC1C(=O)NC(CC(N)=O)C(=O)NC2C(=O)NC3C(=O)NC(C(=O)NC(C(=O)O)c4cc(O)cc(O)c4-c4cc3ccc4O)C(OC3CC(C)(N)C(O)C(C)O3)c3ccc(c(Cl)c3)Oc3cc2cc(c3OC2OC(CO)C(O)C(O)C2OC2CC(C)(NCc3ccc(-c4ccccc4)cc3)C(O)C(C)O2)Oc2ccc(cc2Cl)C1O [Example 15, N^1-(N-BOC-D-methionine) derivative of N^DISACC-(p-phenylbenzyl)desleucylA82846B] | 0.25 | 1 | 1 | 0.125 | 1.2 | >64 | 0.5 | 0.25 | 0.5 | >64 | 1 | 1 | 8 | 1 | 1 | ≦.06 | 2 | 1 | 1 | 27 | minimal inhibitory concentration (MIC), SH 105 [19]: 1 |
| CC(C)C[C@@H](N)C(=O)N[C@H]1C(=O)N[C@@H](CC(N)=O)C(=O)N[C@H]2C(=O)N[C@H]3C(=O)NC(C(=O)N[C@H](C(=O)O)c4cc(O)cc(O)c4-c4cc3ccc4O)[C@H](OC3CC(C)(N)C(O)C(C)O3)c3ccc(c(Cl)c3)Oc3cc2cc(c3OC2OC(CO)C(O)C(O)C2OC2CC(C)(N)C(O)C(C)O2)Oc2ccc(cc2Cl)[C@H]1O (stereo partly drawn) [Example 17, N^1-D-leucine derivative of desleucylA82846B] | 0.25 | 0.5 | 0.125 | ≦.06 | 0.5 | >64 | 0.06 | ≦.06 | 0.06 | 32 | 0.06 | 0.5 | 1 | 1 | 0.06 | ≦.06 | 0.25 | 0.25 | 0.06 | >32 | minimal inhibitory concentration (MIC), SH 105 [19]: 0.5 |
| CC(C)CC(NC(=O)OC(C)(C)C)C(=O)NC1C(=O)NC(CC(N)=O)C(=O)NC2C(=O)NC3C(=O)NC(C(=O)NC(C(=O)O)c4cc(O)cc(O)c4-c4cc3ccc4O)C(OC3CC(C)(N)C(O)C(C)O3)c3ccc(c(Cl)c3)Oc3cc2cc(c3OC2OC(CO)C(O)C(O)C2OC2CC(C)(NCc3ccc(-c4ccccc4)cc3)C(O)C(C)O2)Oc2ccc(cc2Cl)C1O [Example 18, N^1-(N-BOC-D-leucine) derivative of N^DISACC-(p-phenylbenzyl)desleucylA82846B] | 0.25 | 0.5 | ≦.06 | no growth | 0.87 | >64 | 0.5 | ≦.06 | 0.25 | 16 | 0.25 | 0.5 | 2 | 1 | 1 | 0.5 | 0.5 | 0.5 | 0.125 | 27 | minimal inhibitory concentration (MIC), SH 105 [19]: 1 |
| CC1OC(OC2c3ccc(c(Cl)c3)Oc3cc4cc(c3OC3OC(CO)C(O)C(O)C3OC3CC(C)(NCc5ccc(-c6ccccc6)cc5)C(O)C(C)O3)Oc3ccc(cc3Cl)C(O)C(NC(=O)C(CCCCNC(=O)OC(C)(C)C)NC(=O)OC(C)(C)C)C(=O)NC(CC(N)=O)C(=O)NC4C(=O)NC3C(=O)NC2C(=O)NC(C(=O)O)c2cc(O)cc(O)c2-c2cc3ccc2O)CC(C)(N)C1O [Example 19, N^1-(N^1N′-DIBOC-D-lysine) derivative of N^DISACC-(p-phenylbenzyl)desleucylA82846B] | 2 | 2 | 1 | no growth | 2.6 | >64 | 2 | 0.5 | 2 | >64 | 2 | 2 | 8 | 4 | 2 | 1 | 2 | 2 | 1 | 64 | minimal inhibitory concentration (MIC), SH 105 [19]: 4 |
| CC1OC(OC2C(Oc3c4cc5cc3Oc3ccc(cc3Cl)[C@@H](O)[C@@H](NC(=O)[C@@H](Cc3ccc(Cl)cc3)NC(=O)OC(C)(C)C)C(=O)N[C@@H](CC(N)=O)C(=O)N[C@H]5C(=O)N[C@H]3C(=O)NC(C(=O)N[C@H](C(=O)O)c5cc(O)cc(O)c5-c5cc3ccc5O)[C@H](OC3CC(C)(N)C(O)C(C)O3)c3ccc(c(Cl)c3)O4)OC(CO)C(O)C2O)CC(C)(N)C1O (stereo partly drawn) [Example 20, N^1-[N-BOC-D-3-(p-chlorophenyl)alanine] derivative of desleucylA82846B] | 0.125 | 0.25 | ≦.06 | no growth | 2 | >64 | 0.125 | ≦.06 | 0.25 | 8 | ≦.06 | 0.5 | 16 | 16 | 0.5 | 0.25 | 0.125 | 0.125 | ≦.06 | >128 | minimal inhibitory concentration (MIC), SH 105 [19]: 8 |

Source: US6670446B1, “N1 modified glycopeptides” (Eli Lilly and Company, priority 1998, dated 2003)
